Data published in ChEMBL document CHEMBL4033648, “Eco-friendly synthesis of novel cyanopyridine derivatives and their anticancer and PIM-1 kinase inhibitory activities” (Eur J Med Chem, 2017).

Key:
[1] = test system: HepG2; experiment: Cytotoxicity against human HepG2 cells; type: functional, cell-based
[2] = target: Serine/threonine-protein kinase pim-1 (Homo sapiens, UniProt P11309); experiment: Inhibition of human PIM1 measured after 5 mins by ELISA relative to control
[3] = test system: HCT-116; experiment: Cytotoxicity against human HCT116 cells; type: functional, cell-based
[4] = test system: MCF7; experiment: Cytotoxicity against human MCF7 cells; type: functional, cell-based
[5] = test system: HepG2; experiment: Induction of apoptosis in human HepG2 cells assessed as decrease in Bcl2 level by qRT-PCR analysis relative to control; type: functional
[6] = test system: HepG2; experiment: Induction of apoptosis in human HepG2 cells assessed as upregulation of caspase 3 level measured up to 30 mins by immunoassay relative to control; type: functional
[7] = test system: HepG2; experiment: Induction of apoptosis in human HepG2 cells assessed as increase in Bax/Bcl2 ratio by qRT-PCR analysis relative to control; type: functional
[8] = test system: HepG2; experiment: Induction of apoptosis in human HepG2 cells assessed as increase in Bax level by qRT-PCR analysis relative to control; type: functional

| Compound | IC50 [1] [µM] | IC50 [2] [µM] | inhibition [2] [%] | IC50 [3] [µM] | IC50 [4] [µM] | fold change (FC) [5] | fold change (FC) [6] | fold change (FC) [7] | fold change (FC) [8] |
| --- | --- | --- | --- | --- | --- | --- | --- | --- | --- |
| N#Cc1c(-c2cccc3ccccc23)cc(-c2cc3c(ccc4ccccc43)oc2=O)nc1N | 45.8 | 25.5 | 61.5 | 30.6 | 80.7 | – | – | – | – |
| N#Cc1c(-c2cccs2)cc(-c2cc3c(ccc4ccccc43)oc2=O)nc1N | 35.7 | 19.3 | 69.2 | 80 | 59.1 | – | – | – | – |
| N#Cc1c(-c2cccs2)cc(-c2cc3c(ccc4ccccc43)oc2=O)[nH]c1=O | 30.5 | 0.94 | 89 | 36.2 | 20.6 | 38.7 | 5.6 | 22704 | 585 |
| N#Cc1c(-c2cccs2)cc(-c2cccs2)nc1O | 41.6 | 3.16 | 84.8 | 187 | 249 | – | – | – | – |
| COc1cc2c(c(OC)c1OC)-c1ccc(OC)c(=O)cc1[C@@H](NC(C)=O)CC2 [COLCHICINE] | – | 4.3 | 65.1 | – | – | – | – | – | – |
| O=c1[nH]cc(F)c(=O)[nH]1 [FLUOROURACIL] | 8.1 | – | – | – | 7.9 | – | – | – | – |
| COc1ccc(-c2cc(-c3cccs3)nc(N)c2C#N)cc1 | 104 | – | 76.9 | 122 | 88.3 | – | – | – | – |
| N#Cc1c(-c2cccc3ccccc23)cc(-c2ccc3ccccc3c2)nc1N | 11.9 | 1.16 | 86.5 | 20.5 | 19.2 | – | – | – | – |
| N#Cc1c(-c2cccc3ccccc23)cc(-c2cccs2)[nH]c1=O | 35.9 | 4.8 | 77.8 | 28.6 | 27.1 | – | – | – | – |
| N#Cc1c(-c2cccc3ccccc23)cc(-c2ccc3ccccc3c2)[nH]c1=O | 220 | 10 | 81 | 228 | 236 | – | – | – | – |
| COc1ccc(-c2cc(-c3cc4c(ccc5ccccc54)oc3=O)nc(N)c2C#N)cc1 | 300 | – | 26 | – | – | – | – | – | – |
| N#Cc1c(-c2cccs2)cc(-c2cccs2)nc1N | 28.3 | 7.52 | 85 | 91.2 | 72.1 | – | – | – | – |
| COc1ccc(-c2cc(-c3cccs3)[nH]c(=O)c2C#N)cc1 | 15.5 | 6.7 | 73 | 28.7 | 21.9 | – | – | – | – |
| COc1ccc(-c2cc(-c3cc4c(ccc5ccccc54)oc3=O)[nH]c(=O)c2C#N)cc1 | 36.3 | 10.6 | 83.1 | 24.9 | 36.7 | – | – | – | – |
| N#Cc1c(-c2cccc3ccccc23)cc(-c2cc3c(ccc4ccccc43)oc2=O)[nH]c1=O | 15.3 | 1.47 | 79.5 | 25.9 | 25.2 | – | – | – | – |
| N#Cc1c(-c2cccc3ccccc23)cc(-c2cccs2)nc1N | 181 | – | 58.5 | 66.7 | 38.8 | – | – | – | – |
